Data on four compounds can be found in patent publication US5516782A, “New meso-azacyclic aromatic acid amides and esters as novel serotonergic agents” (G. D. Searle & Co., priority 1995, dated 1996).

In assay [1] the target is 5-HT4 receptor (Rattus norvegicus, UniProt Q62758). The experiment in a line: cell-based. Conditions: rat esophagus tunica muscularis mucosae contracted with carbachol (3 μM); tissues from 5 rats; 37° C.; read-out: EC50 values for agonists at this 5-HT4 receptor. As for the experimental part:
Agonist activity was determined utilizing relaxation of carbachol-contracted rat tunica muscularis mucosae. One 2 cm segment of intrathoracic esophagus proximal to the diaphragm was removed from male rats, weighing approximately 300 gm, and the outer muscle layers removed. The inner tunica muscularis mucosa was mounted under 0.2-0.3 g of tension in a tissue bath containing oxygenated Tyrode's solution at 37° C. […] Following a 30 min equilibrium period, tissues were isometrically contracted with carbachol (3 μM) to obtain a tonic contraction. A stable plateau was obtained within 20 min when test compound was added cumulatively to relax the muscle strip. EC50 values were obtained for each agonist in tissues from 5 rats.

In assay [2] the target is T1, 5-HT3 receptor (Rattus norvegicus, UniProt P35563).
T1 construct: Brain cortices are obtained from male rats and a membrane fraction prepared by standard techniques; from tissue; host or cells: rat brain cortex membranes
T1 sequence (P35563 24-483): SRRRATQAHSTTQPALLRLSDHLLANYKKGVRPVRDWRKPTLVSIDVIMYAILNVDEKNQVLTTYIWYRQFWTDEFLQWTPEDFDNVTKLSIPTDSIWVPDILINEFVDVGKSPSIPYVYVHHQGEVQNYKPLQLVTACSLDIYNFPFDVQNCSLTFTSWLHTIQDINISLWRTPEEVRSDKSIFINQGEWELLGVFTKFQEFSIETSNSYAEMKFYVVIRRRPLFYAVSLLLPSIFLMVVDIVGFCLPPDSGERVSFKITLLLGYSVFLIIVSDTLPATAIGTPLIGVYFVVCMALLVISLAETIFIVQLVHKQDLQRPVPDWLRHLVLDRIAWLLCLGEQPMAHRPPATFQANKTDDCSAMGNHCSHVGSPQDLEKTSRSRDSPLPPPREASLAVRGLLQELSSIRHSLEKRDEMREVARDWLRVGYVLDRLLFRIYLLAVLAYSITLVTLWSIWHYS
The experiment in a line: Serotonin (5-HT3) radioligand receptor binding assay ([3H]-GR65630, rat brain cortex membranes). As to the method: 5-HT3 antagonism can be determined by the radioligand receptor binding assay as described herein and in the in vivo Bezold-Jarisch reflex procedure.
GR65630 binds to the 5-HT3 receptor. Brain cortices are obtained from male rats and a membrane fraction prepared by standard techniques. 0.04 mg of membrane prep is incubated with 0.2 nM [^3 H]-GR656630 for 60 minutes at 22° C. […] Membranes are filtered and washed 3 times and the filters are counted to determine [3H]-GR65630 specifically bound.*
Kilpatrick G. J., Jones B. J. and Tyers M. B. Identification and distribution of 5-HT3 receptors in rat brain using radioligand binding. Nature, 330: 746-748, 1987.

Chain of 5-HT4 receptor (Q62758 whole entry): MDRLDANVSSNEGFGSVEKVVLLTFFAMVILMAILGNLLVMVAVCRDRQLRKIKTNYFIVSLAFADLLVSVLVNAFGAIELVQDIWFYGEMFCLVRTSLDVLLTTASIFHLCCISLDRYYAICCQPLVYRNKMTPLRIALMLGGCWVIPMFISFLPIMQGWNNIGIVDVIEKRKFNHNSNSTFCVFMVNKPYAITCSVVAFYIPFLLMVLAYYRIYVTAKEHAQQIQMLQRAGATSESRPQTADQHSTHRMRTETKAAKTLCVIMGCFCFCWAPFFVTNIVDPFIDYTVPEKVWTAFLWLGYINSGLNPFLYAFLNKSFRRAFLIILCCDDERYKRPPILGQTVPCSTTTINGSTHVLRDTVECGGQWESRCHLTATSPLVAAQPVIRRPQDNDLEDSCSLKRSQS

Take `COc1cc(N)c(Cl)cc1C(=O)NCC12CCCN1CCC2` [Example 1, 4-amino-5-chloro-2-methoxy-N-(tetrahydro-1H-pyrrolizin-7a (5H) -ylmethyl)benzamide]: in assay [1], the EC50 (as a rule, the concentration needed to bring the measured effect to its halfway point) was determined as 422 nM.
Still for that read-out and setting: next, `COc1cc(N)c(Cl)cc1C(=O)NCC12CC3CN(CC3C1)C2` [Example 9, 4-amino-5-chloro-N-[(hexahydro-2,5β-methano-1H-3aR,3aα,6aα-cyclopenta[c]pyrrol-5-yl)methyl]-2-methoxybenzamide]: 216 nM.
Turning to `Cc1nc[nH]c1CCC(=O)c1cn(C)c2ccccc12` [GR65630], the “% Specific Binding” value in assay [2] (radioligand, non-specific binding estimated in the presence of 1 uM ICS 205-930) was 70%.
As to `COc1ccc2[nH]cc(C3=CCNCC3)c2c1` [RU24969], in assay [2], the affinity corresponds to a Ki of 1.85 nM.
